Data taken from patent US10597388B2, “Pyridazinone herbicides” (FMC CORPORATION, priority 2014, dated 2020).

Assays:
Format in all cases: in vivo
[1] = test system: morningglory (Ipomoea coccinea); experiment: Test C greenhouse herbicide test, pre- and postemergence
Method in brief: (§1)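 Visual 0–100 injury score (100 = complete control) taken against untreated controls after 13–15 d in greenhouse. Test chemicals, formulated in solvent plus surfactant, applied preemergence to seeds in loam–sand soil or postemergence to 1- to 4-leaf plants (2–18 cm).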

[2] = test system: waterhemp (common waterhemp, Amaranthus rudis); experiment: as above
Method in brief: as §1

[3] = test system: nutsedge, yellow (yellow nutsedge, Cyperus esculentus); experiment: as above
Method in brief: as §1

[4] = test system: lambsquarters (Chenopodium album); experiment: as above
Method in brief: as §1

[5] = test system: corn (Zea mays); experiment: as above
Method in brief: as §1

[6] = test system: ragweed (common ragweed, Ambrosia elatior); experiment: as above
Method in brief: as §1

[7] = test system: foxtail, giant (giant foxtail, Setaria faberii); experiment: as above
Method in brief: as §1

[8] = test system: soybean (Glycine max); experiment: as above
Method in brief: as §1

[9] = test system: ryegrass, Italian (Italian ryegrass, Lolium multiflorum); experiment: as above
Method in brief: as §1

[10] = test system: blackgrass (Alopecurus myosuroides); experiment: as above
Method in brief: as §1

[11] = test system: wheat (winter wheat, Triticum aestivum); experiment: as above
Method in brief: as §1

[12] = test system: pigweed (Amaranthus retroflexus); experiment: as above
Method in brief: as §1

[13] = test system: johnsongrass (Sorghum halepense); experiment: as above
Method in brief: as §1

[14] = test system: oilseed rape (Brassica napus); experiment: as above
Method in brief: as §1

[15] = test system: crabgrass, large (large crabgrass, Digitaria sanguinalis); experiment: as above
Method in brief: as §1

[16] = test system: kochia (Kochia scoparia); experiment: Test C greenhouse herbicide test, postemergence
Method in brief: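 Postemergence foliar treatment, 1- to 4-leaf stage (2–18 cm), peat/vermiculite medium; greenhouse 13–15 d; visual rating vs controls, 0 = no effect, 100 = complete control; dash = no result.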

[17] = Postemergence, 31 g ai/ha, scale 0 to 100 (0 no effect, 100 complete control)
[18] = Postemergence, 62 g ai/ha, 0 to 100 scale (0 no effect, 100 complete control)
[19] = Postemergence, 250 g ai/ha, scale 0 to 100, 0 is no effect, 100 is complete control
[20] = postemergence, 125 g ai/ha, scale 0 to 100, 0 no effect, 100 complete control
[21] = Postemergence, 16 g ai/ha, scale 0 to 100 (0 no effect, 100 complete control)
[22] = Postemergence, 31 g ai/ha, 0 to 100 scale (0 no effect, 100 complete control)
[23] = Postemergence, 125 g ai/ha, scale 0 to 100, 0 is no effect, 100 is complete control
[24] = postemergence, 62 g ai/ha, scale 0 to 100, 0 no effect, 100 complete control

CC(=O)Oc1c(C)nn(C)c(=O)c1-c1c([N+](=O)[O-])ccc2ccccc12 [Compound 164]
Plant response rating, Morningglory [1, 17]: 80 | Morningglory plant response rating [1, 18]: 85 | Plant response rating, Morningglory [1, 19]: 90 | Morningglory plant response rating [1, 20]: 90 | Plant response rating, Waterhemp [2, 17]: 60 | Waterhemp plant response rating [2, 18]: 70 | Plant response rating, Waterhemp [2, 19]: 75 | Waterhemp plant response rating [2, 20]: 70 | Plant response rating, Nutsedge, Yellow [3, 17]: 20 | Nutsedge, Yellow plant response rating [3, 18]: 20 | Plant response rating, Nutsedge, Yellow [3, 19]: 40 | Nutsedge, Yellow plant response rating [3, 20]: 25 | Plant response rating, Lambsquarters [4, 17]: 70 | Lambsquarters plant response rating [4, 18]: 85 | Plant response rating, Lambsquarters [4, 19]: 98 | Lambsquarters plant response rating [4, 20]: 85 | Plant response rating, Corn [5, 17]: 0 | Corn plant response rating [5, 18]: 0 | Plant response rating, Corn [5, 19]: 5 | Corn plant response rating [5, 20]: 5 | Plant response rating, Ragweed [6, 17]: 70 | Ragweed plant response rating [6, 18]: 80 | Plant response rating, Ragweed [6, 19]: 90 | Ragweed plant response rating [6, 20]: 85 | Plant response rating, Foxtail, Giant [7, 17]: 5 | Foxtail, Giant plant response rating [7, 18]: 10 | Plant response rating, Foxtail, Giant [7, 19]: 30 | Foxtail, Giant plant response rating [7, 20]: 15 | Plant response rating, Soybean [8, 17]: 0 | Soybean plant response rating [8, 18]: 0 | Plant response rating, Soybean [8, 19]: 5 | Soybean plant response rating [8, 20]: 10 | Plant response rating, Ryegrass, Italian [9, 17]: 50 | Ryegrass, Italian plant response rating [9, 18]: 60 | Plant response rating, Ryegrass, Italian [9, 19]: 85 | Ryegrass, Italian plant response rating [9, 20]: 80 | Plant response rating, Blackgrass [10, 17]: 5 | Blackgrass plant response rating [10, 18]: 15 | Plant response rating, Blackgrass [10, 19]: 45 | Blackgrass plant response rating [10, 20]: 40 | Plant response rating, Wheat [11, 17]: 5 | Wheat plant response rating [11, 18]: 5 | Plant response rating, Wheat [11, 19]: 20 | Wheat plant response rating [11, 20]: 10 | Plant response rating, Pigweed [12, 17]: 70 | Pigweed plant response rating [12, 18]: 80 | Plant response rating, Pigweed [12, 19]: 85 | Pigweed plant response rating [12, 20]: 85 | Plant response rating, Johnsongrass [13, 17]: 5 | Johnsongrass plant response rating [13, 18]: 5 | Plant response rating, Johnsongrass [13, 19]: 10 | Johnsongrass plant response rating [13, 20]: 5 | Plant response rating, Oilseed Rape [14, 17]: 0 | Oilseed Rape plant response rating [14, 18]: 0 | Plant response rating, Oilseed Rape [14, 19]: 0 | Oilseed Rape plant response rating [14, 20]: 0 | Plant response rating, Crabgrass, Large [15, 17]: 0 | Crabgrass, Large plant response rating [15, 18]: 5 | Plant response rating, Crabgrass, Large [15, 19]: 10 | Crabgrass, Large plant response rating [15, 20]: 10 | Plant response rating, Kochia [16, 17]: 60 | Kochia plant response rating [16, 18]: 85 | Plant response rating, Kochia [16, 19]: 95 | Kochia plant response rating [16, 20]: 90

COc1ccc2ccccc2c1-c1c(O)c(C)nn(C)c1=O [Compound 40]
Plant response rating, Morningglory [1, 21]: 5 | Morningglory plant response rating [1, 22]: 55 | Plant response rating, Morningglory [1, 23]: 80 | Morningglory plant response rating [1, 24]: 65 | Plant response rating, Waterhemp [2, 21]: 20 | Waterhemp plant response rating [2, 22]: 65 | Plant response rating, Waterhemp [2, 23]: 80 | Waterhemp plant response rating [2, 24]: 65 | Plant response rating, Nutsedge, Yellow [3, 21]: 0 | Nutsedge, Yellow plant response rating [3, 22]: 0 | Plant response rating, Nutsedge, Yellow [3, 23]: 20 | Nutsedge, Yellow plant response rating [3, 24]: 15 | Plant response rating, Lambsquarters [4, 21]: 50 | Lambsquarters plant response rating [4, 22]: 70 | Plant response rating, Lambsquarters [4, 23]: 80 | Lambsquarters plant response rating [4, 24]: 70 | Plant response rating, Corn [5, 21]: 0 | Corn plant response rating [5, 22]: 0 | Plant response rating, Corn [5, 23]: 20 | Corn plant response rating [5, 24]: 0 | Plant response rating, Ragweed [6, 21]: 25 | Ragweed plant response rating [6, 22]: 45 | Plant response rating, Ragweed [6, 23]: 85 | Ragweed plant response rating [6, 24]: 75 | Plant response rating, Foxtail, Giant [7, 21]: 5 | Foxtail, Giant plant response rating [7, 22]: 5 | Plant response rating, Foxtail, Giant [7, 23]: 20 | Foxtail, Giant plant response rating [7, 24]: 15 | Plant response rating, Soybean [8, 21]: 35 | Soybean plant response rating [8, 22]: 5 | Plant response rating, Soybean [8, 23]: 30 | Soybean plant response rating [8, 24]: 60 | Plant response rating, Ryegrass, Italian [9, 21]: 10 | Ryegrass, Italian plant response rating [9, 22]: 50 | Plant response rating, Ryegrass, Italian [9, 23]: 80 | Ryegrass, Italian plant response rating [9, 24]: 65 | Plant response rating, Blackgrass [10, 21]: 5 | Blackgrass plant response rating [10, 22]: 5 | Plant response rating, Blackgrass [10, 23]: 45 | Blackgrass plant response rating [10, 24]: 15 | Plant response rating, Wheat [11, 21]: 0 | Wheat plant response rating [11, 22]: 10 | Plant response rating, Wheat [11, 23]: 10 | Wheat plant response rating [11, 24]: 10 | Plant response rating, Pigweed [12, 21]: 15 | Pigweed plant response rating [12, 22]: 35 | Plant response rating, Pigweed [12, 23]: 85 | Pigweed plant response rating [12, 24]: 65 | Plant response rating, Johnsongrass [13, 21]: 0 | Johnsongrass plant response rating [13, 22]: 0 | Plant response rating, Johnsongrass [13, 23]: 5 | Johnsongrass plant response rating [13, 24]: 5 | Plant response rating, Oilseed Rape [14, 21]: 0 | Oilseed Rape plant response rating [14, 22]: 5 | Plant response rating, Oilseed Rape [14, 23]: 5 | Oilseed Rape plant response rating [14, 24]: 30 | Plant response rating, Crabgrass, Large [15, 21]: 5 | Crabgrass, Large plant response rating [15, 22]: 5 | Plant response rating, Crabgrass, Large [15, 23]: 10 | Crabgrass, Large plant response rating [15, 24]: 5 | Plant response rating, Kochia [16, 21]: 20 | Kochia plant response rating [16, 22]: 70 | Plant response rating, Kochia [16, 23]: 0 | Kochia plant response rating [16, 24]: 80
